Earlier results on one molecule are cited in patent US20230084129A1, “PHARMACEUTICAL COMPOSITION COMPRISING ESOMEPRAZOLE AND SODIUM BICARBONATE HAVING EXCELLENT RELEASE PROPERTIES” (Chong Kun Dang Pharmaceutical Corp., priority 2020, published 2023).

The conditions of the data set: aqueous solution having a pH of 3 or less.

For `COc1ccc2nc([S@@+]([O-])Cc3ncc(C)c(OC)c3C)[nH]c2c1` [esomeprazole, (S)-5-methoxy-2-[(4-methoxy-3,5-dimethyl-2-pyridinyl)-methyl]sulfinyl-1H-benzimidazole], the degradation half-life entry is given as “less than 10 minutes”.
